Measurements published in patent US9896441B2 (Lycera Corporation, priority 2014, dated 2018).

Key:
Gal4-RORγ-LBD = molecular target: T1, Gal4-RORγ-LBD (Homo sapiens, UniProt P51449); test: Gal4-RORγ Luciferase Reporter Assay in HEK-293T Cells; type: cell-based; settings: HEK-293 cells, luciferase reporter, with ursolic acid
T1 construct: expressed in transfected cells
T1 sequence (P51449 269-508 limits assumed): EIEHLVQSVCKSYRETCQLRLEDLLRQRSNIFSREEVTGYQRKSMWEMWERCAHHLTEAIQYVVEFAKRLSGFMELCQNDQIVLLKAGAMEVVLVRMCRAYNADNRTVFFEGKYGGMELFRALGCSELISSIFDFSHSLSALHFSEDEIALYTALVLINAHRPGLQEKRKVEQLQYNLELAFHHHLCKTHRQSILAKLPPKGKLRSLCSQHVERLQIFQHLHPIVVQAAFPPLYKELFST
Summary of the method: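 Max Response was taken as the upper plateau of a 4-parameter logistic fit of luciferase signal, normalized to 100 for wells without ursolic acid or compound. Transiently Gal4-RORγ-LBD/Gal4-luc transfected HEK-293 cells carrying […] ursolic acid were incubated with test compounds (0.2% DMSO) overnight at 37 °C and read with One-Glo.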

RORγ-LBD = molecular target: T2, RORγ-LBD (Homo sapiens, UniProt P51449); test: RORγ-Ligand Binding Domain (LBD) TR-FRET Assay; type: biochemical; settings: RORγ-LBD TR-FRET
T2 construct: made in house; host or cells: SF9 cells (baculovirus); used as diluted lysate
T2 sequence (P51449 269-508 limits assumed): T1 sequence (P51449 269-508 limits assumed)
Summary of the method: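 Lysate from SF9 cells expressing His-RORγ-LBD is diluted to about 3 nM final in 50 mM Tris pH 7.0 assay buffer. A biotin-tagged SRC1 LXXLL peptide goes in at 200 nM final, plus ursolic acid at 2 μM final. Test compounds carry 1% DMSO final; signal read by TR-FRET.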

SMILES	EC50 (Gal4-RORγ-LBD)	EC50 (RORγ-LBD)
O=C(O)CC[C@H]1CN(S(=O)(=O)c2cccc(C(F)(F)F)c2)c2cc(/C=C3/CCCOC3)ccc2O1 [Example 95J, (S,Z)-3-(6-((dihydro-2H-pyran-3(4H)-ylidene)methyl)-4-((3-(trifluoromethyl)phenyl)sulfonyl)-3,4-dihydro-2H-benzo[b][1,4]oxazin-2-yl)propanoic acid]	500 to 5000 nM	< 500 nM
CC1CCC(=Cc2ccc3c(c2)N(S(=O)(=O)c2cccc(C(F)(F)F)c2)C[C@H](CCC(=O)O)O3)CC1 (stereo partly drawn) [Example 95K, 3-((2S)-6-((4-methylcyclo-hexylidene)methyl)-4-((3-(trifluoromethyl)phenyl)sulfonyl)-3,4-dihydro-2H-benzo[b][1,4]oxazin-2-yl)propanoic acid]	500 to 5000 nM	< 500 nM
O=C(O)CC[C@H]1CN(S(=O)(=O)c2cccc(C(F)(F)F)c2)c2cc(C=C3CCC(F)(F)CC3)ccc2O1 [Example 95L, (S)-3-(6-((4,4-difluorocyclo-hexylidene)methyl)-4-((3-(trifluoromethyl)phenyl)sulfonyl)-3,4-dihydro-2H-benzo[b][1,4]oxazin-2-yl)propanoic acid]	< 500 nM	< 500 nM
O=C(O)CC[C@H]1CN(S(=O)(=O)c2cc(C(F)(F)F)cnc2OCCO)c2cc(C=C3CCC(F)(F)CC3)ccc2O1 [Example 95M, (S)-3-(6-((4,4-difluorocyclohexylidene)methyl)-4-((2-(2-hydroxyethoxy)-5-(trifluoromethyl)pyridin-3-yl)sulfonyl)-3,4-dihydro-2H-benzo[b][1,4]oxazin-2-yl)propanoic acid]	500 to 5000 nM	< 500 nM
O=C(O)CC[C@H]1CN(S(=O)(=O)c2cccc(C(F)(F)F)c2)c2cc(C=C3CCOCC3)ccc2O1 [Example 95N, (S)-3-(6-((tetrahydro-4H-pyran-4-ylidene)methyl)-4-((3-(trifluoromethyl)phenyl)sulfonyl)-3,4-dihydro-2H-benzo[b][1,4]oxazin-2-yl)propanoic acid]	500 to 5000 nM	< 500 nM
O=C(O)CC[C@H]1CN(S(=O)(=O)c2cc(C(F)(F)F)cnc2OCCO)c2cc(C=C3CCOCC3)ccc2O1 [Example 95O, (S)-3-(4-((2-(2-hydroxyethoxy)-5-(trifluoromethyl)pyridin-3-yl)sulfonyl)-6-((tetrahydro-4H-pyran-4-ylidene)methyl)-3,4-dihydro-2H-benzo[b][1,4]oxazin-2-yl)propanoic acid]	500 to 5000 nM	< 500 nM
CC1CCC(=Cc2ccc3c(c2)N(S(=O)(=O)c2cc(C(F)(F)F)cnc2OCCO)C[C@H](CCC(=O)O)O3)CC1 (stereo partly drawn) [Example 95P, 3-((2S)-4-((2-(2-hydroxyethoxy)-5-(trifluoromethyl)pyridin-3-yl)sulfonyl)-6-((4-methylcyclohexylidene)methyl)-3,4-dihydro-2H-benzo[b][1,4]oxazin-2-yl)propanoic acid]	500 to 5000 nM	< 500 nM
CC1CCCC/C1=C\c1ccc2c(c1)N(S(=O)(=O)c1cccc(C(F)(F)F)c1)C[C@H](CCC(=O)O)O2 (stereo partly drawn) [Example 95Q, 3-((2S)-6-((E)-(2-methylcyclohexylidene)methyl)-4-((3-(trifluoromethyl)phenyl)-sulfonyl)-3,4-dihydro-2H-benzo[b][1,4]oxazin-2-yl)propanoic acid]	< 500 nM	< 500 nM
CC1CCCC/C1=C\c1ccc2c(c1)N(S(=O)(=O)c1cc(C(F)(F)F)cnc1OCCO)C[C@H](CCC(=O)O)O2 (some centres unmarked) [Example 95R]	< 500 nM	< 500 nM
O=C(O)CC[C@H]1CN(S(=O)(=O)c2cccc(C(F)(F)F)c2)c2cc(/C=C3\CC4CCC3C4)ccc2O1 (stereo partly drawn) [Example 95S, 3-((2S)-6-((E)-bicyclo[2.2.1]heptan-2-ylidenemethyl)-4-((3-(trifluoromethyl)phenyl)sulfonyl)-3,4-dihydro-2H-benzo[b][1,4]oxazin-2-yl)propanoic acid]	< 500 nM	< 500 nM
O=C(O)CC[C@H]1CN(S(=O)(=O)c2cc(C(F)(F)F)cnc2OCCO)c2cc(/C=C3\CC4CCC3C4)ccc2O1 (stereo partly drawn) [Example 95T, 3-((2S)-6-((E)-bicyclo[2.2.1]heptan-2-ylidenemethyl)-4-((2-(2-hydroxyethoxy)-5-(trifluoromethyl)pyridin-3-yl)sulfonyl)-3,4-dihydro-2H-benzo[b][1,4]oxazin-2-yl)propanoic acid]	500 to 5000 nM	< 500 nM
CC1CCCC(=Cc2ccc3c(c2)N(S(=O)(=O)c2cc(C(F)(F)F)cnc2OCCO)C[C@H](CCC(=O)O)O3)C1 (stereo partly drawn) [Example 95U, 3-((2S)-4-((2-(2-hydroxyethoxy)-5-(trifluoromethyl)pyridin-3-yl)sulfonyl)-6-((3-methylcyclohexylidene)methyl)-3,4-dihydro-2H-benzo[b][1,4]oxazin-2-yl)propanoic acid]	500 to 5000 nM	< 500 nM
CC1(C)CCC(=Cc2ccc3c(c2)N(S(=O)(=O)c2cc(C(F)(F)F)cnc2OCCO)C[C@H](CCC(=O)O)O3)CC1 [Example 95W, (S)-3-(6-((4,4-dimethyl-cyclohexylidene)methyl)-4-((2-(2-hydroxyethoxy)-5-(trifluoromethyl)pyridin-3-yl)sulfonyl)-3,4-dihydro-2H-benzo[b][1,4]oxazin-2-yl)propanoic acid]	500 to 5000 nM	< 500 nM
O=C(O)CC[C@H]1CN(S(=O)(=O)c2cc(C(F)(F)F)cnc2OCCO)c2cc(/C=C3/CCCOC3)ccc2O1 [Example 95Y, (S,Z)-3-(6-((dihydro-2H-pyran-3(4H)-ylidene)methyl)-4-((2-(2-hydroxyethoxy)-5-(trifluoromethyl)pyridin-3-yl)sulfonyl)-3,4-dihydro-2H-benzo[b][1,4]oxazin-2-yl)propanoic acid]	500 to 5000 nM	< 500 nM
C[C@@H]1C/C(=C\c2ccc3c(c2)N(S(=O)(=O)c2cccc(C(F)(F)F)c2)C[C@H](CCC(=O)O)O3)C[C@H](C)C1 [Example 95Z, 3-((S)-6-((E)-((3R,5S)-3,5-dimethylcyclohexylidene)-methyl)-4-((3-(trifluoromethyl)-phenyl)sulfonyl)-3,4-dihydro-2H-benzo[b][1,4]oxazin-2-yl)propanoic acid]	500 to 5000 nM	< 500 nM
C/C(=C\c1ccc2c(c1)N(S(=O)(=O)c1cccc(C(F)(F)F)c1)C[C@H]([C@H](C)O)O2)c1c(F)cccc1Cl [Example 96, (S)-1-((R)-6-((E)-2-(2-Chloro-6-fluorophenyl)prop-1-en-1-yl)-4-((3-(trifluoromethyl)phenyl)sulfonyl)-3,4-dihydro-2H-benzo[b][1,4]oxazin-2-yl)ethan-1-ol]	< 500 nM	< 500 nM
CCn1cc(S(=O)(=O)N2C[C@H]([C@H](C)O)Oc3ccc(/C=C(\C)c4c(F)cccc4Cl)cc32)c(Cl)n1 [Example 97, (S)-1-((R)-4-((3-Chloro-1-ethyl-1H-pyrazol-4-yl)sulfonyl)-6-((E)-2-(2-chloro-6-fluorophenyl)prop-1-en-1-yl)-3,4-dihydro-2H-benzo[b][1,4]oxazin-2-yl)ethan-1-ol]	< 500 nM	< 500 nM
C/C(=C\c1ccc2c(c1)N(S(=O)(=O)c1cccc(C(F)(F)F)c1)C[C@H]([C@@H](C)O)O2)c1c(F)cccc1Cl [Example 98, (R)-1-((R)-6-((E)-2-(2-Chloro-6-fluorophenyl)prop-1-en-1-yl)-4-((3-(trifluoromethyl)phenyl)sulfonyl)-3,4-dihydro-2H-benzo[b][1,4]oxazin-2-yl)ethan-1-ol]	< 500 nM	< 500 nM
CCn1cc(S(=O)(=O)N2C[C@H]([C@@H](C)O)Oc3ccc(/C=C(\C)c4c(F)cccc4Cl)cc32)c(Cl)n1 [Example 99, (R)-1-((R)-4-((3-Chloro-1-ethyl-1H-pyrazol-4-yl)sulfonyl)-6-((E)-2-(2-chloro-6-fluorophenyl)prop-1-en-1-yl)-3,4-dihydro-2H-benzo[b][1,4]oxazin-2-yl)ethan-1-ol]	500 to 5000 nM	< 500 nM
C/C(=C\c1ccc2c(c1)N(S(=O)(=O)c1cccc(C(F)(F)F)c1)C[C@H]([C@@H](C)N)O2)c1c(F)cccc1Cl [Example 100, (R)-1-((R)-6-((E)-2-(2-Chloro-6-fluorophenyl)prop-1-en-1-yl)-4-((3-(trifluoromethyl)phenyl)sulfonyl)-3,4-dihydro-2H-benzo[b][1,4]oxazin-2-yl)ethan-1-amine]	500 to 5000 nM	< 500 nM
CCn1cc(S(=O)(=O)N2C[C@H]([C@@H](C)N)Oc3ccc(/C=C(\C)c4c(F)cccc4Cl)cc32)c(Cl)n1 [Example 101, (R)-1-((R)-4-((3-Chloro-1-ethyl-1H-pyrazol-4-yl)sulfonyl)-6-((E)-2-(2-chloro-6-fluorophenyl)prop-1-en-1-yl)-3,4-dihydro-2H-benzo[b][1,4]oxazin-2-yl)ethan-1-amine]	> 10000 nM	< 500 nM
CCn1cc(S(=O)(=O)N2C[C@H]([C@@H](C)NC(C)=O)Oc3ccc(/C=C(\C)c4c(F)cccc4Cl)cc32)c(Cl)n1 [Example 102, N—((R)-1-((R)-4-((3-Chloro-1-ethyl-1H-pyrazol-4-yl)sulfonyl)-6-((E)-2-(2-chloro-6-fluorophenyl)prop-1-en-1-yl)-3,4-dihydro-2H-benzo[b][1,4]oxazin-2-yl)ethyl)acetamide]	< 500 nM	< 500 nM
